Experimental findings from patent publication US20170355686A1, “NOVEL OXAZOLE COMPOUNDS AS BETA CATENIN MODULATORS AND USES THEREOF” (NEW YORK UNIVERSITY, priority 2014, published 2017) are described below.

The structures appear in SMILES notation.

The test system of the assay is Wnt reporter. The assay can be described thus: Wnt reporter (Super 8X Topflash, TCF promoter) luciferase IC50 assay in STF and STF3A cells. The format is cell-based. Particulars: for inhibition of the Wnt reporter: HEK293 cells stimulated with either exogenous (STF) or endogenous Wnt 3a (STF3a); for IC50: range over STF (exogenous Wnt3a, paracrine) and STF3A (endogenous Wnt3a, autocrine) HEK293 cells, 24 hours incubation. The protocol:
STF and STF3A cells were cultured in DMEM, 4500 mg/L glucose supplemented with 10% fetal bovine serum, 2 mM L-glutamine, 110 mg/L sodium pyruvate and Penicillin/Streptomycin.
STF cells are HEK293 cells stably expressing the Super 8X Topflash M50 (http://www.addgene.org/12456/; the entire content of which is incorporated herein by reference) reporter. STF3A cells are HEK293 cells stably expressing both Super 8X Topflash reporter and pPGK-mWnt3A. The above cell lines are a gift from David Virshup.
L-Wnt3A cells were cultured in DMEM, 4500 mg/L glucose supplemented with 10% fetal bovine serum and 2 mM L-glutamine and 110 mg/L sodium pyruvate and Penicillin/Streptomycin. Wnt3A-Conditioned media was prepared with L-Wnt3A cells cultured according to recommended protocols from ATCC (http://www.atcc.org/products/all/CRL-2647.aspx#culturemethod).
Unless otherwise indicated, all experiments described herein that call for supplemental Wnt3a utilize Wnt3a conditioned media prepared by harvesting media from L-cells stably transfected with a Wnt3a coding construct (available from ATCC #CRL-2647). The cells are cultured in DMEM containing 10% fetal bovine serum (FBS). The medium, harvested from adherent cells cultured to about 80% confluency over 4 days, is purified through a 0.2 μm filter and stored at 4° C. over several months without an appreciable loss in activity [Willert et al. Nature 423, 448-52 (2003)].
STF and STF3A cells were seeded in 96 well plates, with 20,000 cells in 100 μL media per well. Following 16 hours incubation, 50 μL of media per well containing STF cells were replaced with the same volume of Wnt3A-Conditioned media.
iCRT3 and analogs were tested in triplicates at a concentration range of 50 μM-0.00013 μM, at 5-fold dilutions. Cells were incubated with the compounds for 24 hours.
Cell viability was measured after incubation with 100 μL of PrestoBlue® Cell Viability Reagent in DMEM (1:9) for 30 minutes. Following fluorescence measurements, media containing PrestoBlue reagents was aspirated. Cell were lysed in 60 μL of Dual-Glo® Reagent from the Dual-Glo® Luciferase Assay System. Luciferase activity was quantified with a luminometer after 10 minutes of incubation at room temperature.
Background subtracted luminescence readings (RLU) from the Dual-Glo® Luciferase assay were normalized against background subtracted fluorescence values (RFU) from the PrestoBlue® Cell Viability assay.
The RLU/RFU values were plotted using GraphPad Prism (www.graphpad.com). The curve was fitted with a three parameter curve fitting equation: Y=Min value+(Max value−Min value)/[1+10̂(X−lg IC50)].
Cell lines tested include STF, which are HEK293 cells expressing firefly luciferase under the control of the TCF promoter, and STF3A, which are the same as STF but also expresses Wnt3a constitutively. The two cell lines facilitate the testing of the compounds in the context of Wnt signaling activated in a paracrine (STF) versus autocrine (STF3A) fashion.
Day 0—Seed cells in 96-well plates (20,000 cells per well)
Day 1—Add compounds. For STF cells, half of the medium was also changed to Wnt3a conditioned medium.
Day 2—Measure PrestoBlue (cell viability) and Dual-Glo luciferase (TCF promoter activity).
The concentration range for iCRT3 was 10 μM-0.0000001 μM. All other compounds were tested at a concentration range of 10 μM-0.000026 μM.

One may read the IC50 as the concentration needed to halve the response being measured.

Consider `CCc1ccc(-c2nc(CSCC(=O)NCCc3ccccc3)c(C)o2)cc1` [iCRT3, reference compound], for which the “inhibition of the Wnt reporter” value is on record as “dose dependent inhibition” and the IC50 fell in the range of 14 to 30 µM.

Take `CCc1ccc(-c2nc(CSCC(=O)NCCc3ccc(F)cc3)c(C)o2)cc1` [II-1, 2-[2-(4-ethyl-phenyl)-5-methyl-oxazol-4-ylmethylsulfanyl]-N-[2-(4-fluoro-phenyl)-ethyl]-acetamide]: the “inhibition of the Wnt reporter” value is reported as “dose dependent inhibition” and the half-inhibitory concentration (IC50) lay within 2 to 8 µM.

Regarding `CCc1ccc(-c2nc(CSCC(=O)NCCc3cccnc3)c(C)o2)cc1` [II-7], the “inhibition of the Wnt reporter” value is on record as “dose dependent inhibition” and the IC50 fell in the range of 2 to 8 µM.
